Laboratory results taken from patent publication US20020146823A1, “Method for promoting hematopoietic and mesenchymal cell proliferation and differentiation” (The University of Southern California, priority 1997, published 2002).

Experiments:
AT2 receptor = biological target: T1, AT2 receptor (Homo sapiens, UniProt P50052); conditions: cited from earlier work
T1 sequence (P50052 1-363): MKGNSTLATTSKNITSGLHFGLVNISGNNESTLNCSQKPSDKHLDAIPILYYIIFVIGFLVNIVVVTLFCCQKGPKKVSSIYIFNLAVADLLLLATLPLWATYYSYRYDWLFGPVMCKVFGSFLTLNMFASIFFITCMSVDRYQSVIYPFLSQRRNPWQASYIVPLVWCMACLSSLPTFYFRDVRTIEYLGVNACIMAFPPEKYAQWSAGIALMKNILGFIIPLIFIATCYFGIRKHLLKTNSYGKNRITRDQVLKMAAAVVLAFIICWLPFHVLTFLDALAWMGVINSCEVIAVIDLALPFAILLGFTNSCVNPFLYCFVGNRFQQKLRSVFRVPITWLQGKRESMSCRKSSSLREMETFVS

[1] = tested on: Murine Peritoneal Macrophages; assay: Phagocytic capability of murine peritoneal macrophages (opsonized yeast ingestion); format: cell-based, C57B1/6 mice
Procedure: Resident peritoneal macrophages have very little phagocytic activity. Exposure of macrophages to inflammatory or activating agents will increase this macrophage function. Resident peritoneal macrophages were harvested from C57B1/6 mice or Sprague Dawley rats and resuspended at a concentration of 1×10^6 cells/ml in phosphate buffered saline (PBS). Five separate 0.5 ml cell aliquots were placed on a glass coverslip in a 35 mm petri dish. Prior to incubation, either 0.5 ml of PBS, AII, or AII analogues or fragments at between 1-1000 ug/ml final concentration was added to the individual cover slips. The dishes containing the cover slips were then incubated at 37° C. for 4 hours, after which the cover slips were washed 3 to 6 times with PBS. Opsonized yeast particles (Sigma Chemical Co.) (yeast opsonized with adult serum from the same species as that under study) were added to the cover slips and incubated for 2 hours, after which the cover slips were again washed with PBS and inverted onto a glass slide. The number of macrophages that ingested yeast and the number of yeast per macrophage ingested was then determined microscopically. At least 100 macrophages per coverslip were counted. The data from this study are summarized in Tables 3 and 4 and FIGS. 1 and 2.

rat MSC = assay: Rat mesenchymal stem cell proliferation in bone marrow cultures; format: cell-based, Sprague Dawley rats; conditions: 1 to 100 μg/ml
Procedure: These studies were conducted to determine the effect that AII would have on the proliferation of MSC. Bone marrow cells were harvested from the femur and tibia of female Sprague Dawley rats by flushing the bones with Dulbecco's Minimal Essential Medium-High Glucose (“DMEM-HG”) with a syringe and an 18 gauge needle. These cells were cultured in 24 well plates at 5×10^3 cells/mm^2 in DMEM-HG containing selected lots of fetal calf serum (FCS) and antibiotics (complete medium) at 37° C. incubator containing 5% CO2 in air. Twenty-four hours after the initiation of the cultures the medium and nonadherent cells were aspirated and fresh medium was added. To each of these several wells, complete medium with (1 to 100 μg/ml) or without AII was added. The migration of cells from the clones and their proliferation was followed by microscopic examination. Every 4 days the old medium was removed and fresh medium was added to the cultures. These studies were conducted to determine the effect that inclusion of All analogues and fragments in the cell culture of MSC would have on the proliferation of these cells. Bone marrow cells were harvested from the femur and tibia of female Sprague Dawley rats by flushing the bones with Dulbecco's Minimal Essential Medium-High Glucose (“DMEM-HG”) with a syringe and an 18 gauge needle. […]

human PBMC = assay: Proliferative response of human lymphocytes (3H-thymidine incorporation); format: cell-based; conditions: absence of mitogen
Procedure: Upon stimulation of lymphocytes with mitogen or antigen, these cells undergo blastogenesis and proliferation. In the absence of such stimuli, proliferation is seldom observed. One method to measure cellular proliferation in a short term assay is via measurement of the amount of the nucleotide thymidine that is incorporated into newly synthesized DNA. The effect of All on the proliferation of human PBMC in the presence and absence of pokeweed mitogen (“PWM”) was assessed.
Human PBMC were collected from normal volunteers and isolated via Ficoll Hypaque (Sigma Chemical, St. Louis) density centrifugation. After isolation of the buffy coat, the cells were washed 3× to remove the Ficoll Hypaque, counted in trypan blue (0.01%) and resuspended at a concentration of 1×10^6 cells/ml in RPMI 1640 containing 10% fetal calf serum and antibiotics. A 100 μl aliquot of cells was added to each well. Thereafter, various concentrations (0.1 to 1000 μg/ml final concentration) of AII in RPMI 1640 containing 10% FCS and antibiotics were added to various wells in triplicate. To the appropriate wells, PWM (20 μg/ml final concentration) was added. These plates were incubated at 37° C. in 5% CO2 for 48 hours. […] These filters were dried, placed in scintillation fluid and the amount of thymidine incorporated was determined by beta counting.

rat bone marrow MSC = assay: Alkaline phosphatase expression by MSC in osteogenic medium; format: cell-based, Sprague Dawley rats; conditions: osteogenic medium 4 days
Procedure: Bone marrow from female Sprague Dawley rats were harvested by flushing the femur with medium. The cells were placed in culture dishes […], allowed to adhere overnight, and then placed in DMEM-LG medium containing antibiotics and 10% fetal calf serum together with varying concentrations of AII. At various times after culture initiation, the cells were washed with Tyrode's buffer and placed in osteogenic medium (DMEM-LG containing 10% fetal calf serum, 100 nM dexamethasone and 0.05 mM ascorbic acid) for 4 days prior to assessment of the level of alkaline phosphatase activity per well. Briefly, the wells were washed with Tyrode's buffer and 1 ml alkaline phosphatase substrate solution (50 mM glycine, pH 10.5, containing 1 mM magnesium chloride and 2.5 mM p-nitrophenyl phosphate) to each well. Fifteen minutes after addition of this aqueous substrate, the buffer was removed from the culture and mixed with 1 ml of 1N sodium hydroxide to stop the reaction. The absorbance of the resultant mixture at […] was then determined via spectroscopy. The level of alkaline phosphatase activity is expressed as the level of absorbance per culture dish.

Asp-Arg-Val-Tyr-Ile-His-Pro-Phe (DRVYIHPF; printed: Asp-Arg-Val-Tyr-Ile-His-Pro-Phe) [AII, octapeptide present in humans and other species; known pressor agent, commercially available]
affinity for AT2 relative to AT1 (AT2 receptor): 100 times
# Macrophages with Yeast, Yeast # 0 ([1]; AII 10 μg/ml): 100
# Macrophages with Yeast, Yeast # 7-9 ([1]; AII 10 μg/ml): 0
# Macrophages with Yeast, Yeast # 0 ([1]; AII 100 μg/ml): 100
# Macrophages with Yeast, Yeast # 7-9 ([1]; AII 100 μg/ml): 0
% Ingesting ([1]; AII 100 μg/ml): 16.7%
# Macrophages with Yeast, Yeast # 0 ([1]; AII 1000 μg/ml): 100
# Macrophages with Yeast, Yeast # 7-9 ([1]; AII 1000 μg/ml): 0
% Ingesting ([1]; AII 1000 μg/ml): 25.6%
phagocytic capability of peritoneal macrophages ([1]; exposure to 10 μg/ml or greater): tremendously increased
% phagocytic ([1]; highest concentration): over 25%
yeast observed per macrophage, on average ([1]; highest concentration): ~1
increase in the number of macrophages able to phagocytose ([1]; highest concentration vs resident population): 25 fold
number of MSC (rat MSC; all time points examined): increase in the number of MSC in a concentration dependent manner
number of sites from which MSC were migrating (CFU) and size (number of cells) of colonies formed (rat MSC; complete medium with serum): significantly increased
thymidine incorporation (human PBMC): no increase
proliferation of cells that express alkaline phosphatase (rat bone marrow MSC): can accelerate the proliferation of cells that express alkaline phosphatase
